This is an account of results in patent US7064120B2, “Tricyclic pyridyl carboxamides and derivatives thereof tocolytic oxytocin receptor antagonists” (Wyeth, priority 2001, dated 2006).

As usually defined, the inhibition is how much of the control response was suppressed. Low readings indicate a response near the control, high ones a response far below the control.

T1 sequence (P30518 whole entry): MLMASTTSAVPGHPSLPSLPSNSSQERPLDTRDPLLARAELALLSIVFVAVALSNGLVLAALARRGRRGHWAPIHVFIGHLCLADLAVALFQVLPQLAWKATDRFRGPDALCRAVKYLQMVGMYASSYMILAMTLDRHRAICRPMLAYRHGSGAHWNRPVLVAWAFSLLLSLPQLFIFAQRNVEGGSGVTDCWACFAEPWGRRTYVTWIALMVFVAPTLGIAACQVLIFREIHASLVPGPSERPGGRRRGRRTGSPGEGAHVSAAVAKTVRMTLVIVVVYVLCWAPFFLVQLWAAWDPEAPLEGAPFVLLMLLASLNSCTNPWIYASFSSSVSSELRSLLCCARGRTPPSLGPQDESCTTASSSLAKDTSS

This assay has as its target T1, human vasopressin V2 receptor subtype (Homo sapiens, UniProt P30518).
T1 construct: host or cells: CHO cells, stably transfected (pZeoSV vector)
As to the kind of experiment: Vasopressin binding in CHO cell membranes expressing human vasopressin V2 subtype receptors ([3H]arginine vasopressin radioligand binding). Particulars: 100 nM. The method, then:
Vasopressin Binding in Chinese Hamster Ovary Cell Membranes Expressing Human Vasopressin V2 Subtype Receptors
Chinese Hamster Ovary (CHO) cells stably transfected with the human V2 subtype receptors were obtained from M. Thibonnier, Case Western Reserve University School of Medicine, Cleveland, Ohio.
The trypsin is removed by aspiration and the cells dislodged by tapping. Cell Culture medium (e.g. 30 mL for 1:30 split) is immediately added and mixed well to inactivate trypsin. 1 mL of detached cells is added to new culture flasks containing fresh Cell Culture medium (e.g. into 25 mL per T-150 flask), and mixed gently. The cells are incubated at 37° C. in 5% CO2. The medium is changed at 3 to 4 day interval (or as appropriate). […] All steps are done under sterile conditions.
The cells are washed twice gently with Hank's Balanced Salt solution (e.g. use 10 mL per T-150 flask). […] The contents are transferred to centrifuge tubes (50 mL) kept in ice bath. All subsequent steps are done at 4° C. The tubes are centrifuged at 300×g for 15 min (1380 rpm on SORVAL, Model RT6000D, using the rotor for 50 mL tubes). The supernatant is discarded and the cells suspended in homogenizing buffer(10 mM Tris-HCl containing 0.25 M sucrose and 1 mM EDTA, pH 7.4) ensuring that the volume of the buffer is about ten times the volume of the cell pellet. The cells are pooled into a centrifuge tube (50 mL) and homogenized with Polytron at setting 6 for 10 sec. The homogenate is transferred into a Potter-Elvjehm homogenizer and homogenized with 3 strokes. The homogenate is centrifuged at 1500×g for 60 min at 4° C. (3100 rpm using SORVAL, model RT6000D, using the rotor for 50 mL tubes). The pellet is discarded. The supernatant is centrifuged at 100,000×g for 60 min. at 4° C. (Beckman L8-80M ultracentrifuge; spin at 37,500 rpm with rotor type 70 Ti for 50 mL tubes; 38,000 rpm with type 80Ti for 15 mL tubes; or 35,800 rpm with rotor type 45Ti). The supernantant is discarded and the pellet suspended in 3 to 4 mL of Tris buffer (50 mM TRIS-HCl, pH 7.4). The protein content is estimated by the Bradford or Lowry method. The volume of the membrane suspension is adjusted with the membrane buffer (50 mM Tris-HCl containing 0.1% BSA and 0.1 mM PMSF) to give 3.0 mg/mL (or as appropriate) of protein. The membranes are aliquoted and stored at −70° C.
In wells of a 96-well format microtiter plate, is added 90, 110 or 130 μL (to make up a final volume of 200 μL) of assay buffer containing 50 mM of Tris-HCl (pH 7.4), […], 1 mg % aprotinin, 1 mg % leupeptin, 2 mg % 1,10-phenanthroline, 10 mg % trypsin inhibitor, and 0.1 mM PMSF. The inhibitors are added on the day of the experiment. The components are mixed at room temperature, and then kept in ice bath following adjustment of the pH to 7.4. […] For vasopressin and other peptide ligands 20 μL of 50% DMSO is added and the assay buffer volume is adjusted accordingly. To each well is added 50 μL of frozen membrane suspension thawed immediately prior to use and diluted in assay buffer to the required concentration (equivalent to 25 to 50 μg of protein/well as needed). 20 μL of 8 nM [^3H]arginine vasopressin ligand in the assay buffer, prepared just before use is added and incubated at room temperature for 60 min. shaking the plate on a mechanical shaker for the first 15 min. The incubation is stopped by rapid filtration of the plate contents followed by wash with ice-cold buffer (50 mM Tris-HCl, pH 7.4) using a cell harvester (Tomtek and Printed filtermat-B filter paper). The filter paper is thoroughly dried (7–12 min. in a microwave oven) and impregnated with MeltiLex B/H melt-on scintillation wax sheets and the radioactivity counted in a betaplate scintillation counter.
Binding data is either reported as percent inhibition at a certain concentration or if an IC50 was calculated, as a nanomolar concentration.
The compound `COc1cccc(-c2cc(OC)c(C(=O)N3Cc4ccc(C(=O)NCc5cccnc5)n4Cc4ccccc43)cc2Cl)c1` [Example 43, 10-[(6-Chloro-3,3′-dimethoxy-[1,1′-biphenyl]-4-yl)carbonyl]-N-(3-pyridinylmethyl)-10,11-dihydro-5H-pyrrolo[2,1-c][1,4]benzodiazepine-3-carboxamide] yielded an inhibition at 0.1 µM of 7%.
On to `COc1cc(C(=O)N2Cc3ccc(C(=O)NCc4cccnc4)n3Cc3ccccc32)ccc1-c1cccc2ccccc12` [Example 44, 10-[3-Methoxy-4-(naphthalen-1-yl)benzoyl]-N-(3-pyridinylmethyl)-10,11-dihydro-5H-pyrrolo[2,1-c][1,4]benzodiazepine-3-carboxamide], for which the inhibition at 0.1 µM amounted to 31%.
`COc1ccccc1-c1ccc(C(=O)N2Cc3ccc(C(=O)NCc4cccnc4)n3Cc3ccccc32)cc1OC` [Example 45, 10-[(2,2′-Dimethoxy-[1,1′-biphenyl]-4-yl)carbonyl]-N-(3-pyridinylmethyl)-10,11-dihydro-5H-pyrrolo[2,1-c][1,4]benzodiazepine-3-carboxamide] gave an inhibition at 0.1 µM of 19%.
Still for that read-out and setting: the value for `COc1cccc(-c2ccc(C(=O)N3Cc4ccc(C(=O)NCc5cccnc5)n4Cc4ccccc43)cc2OC)c1` [Example 46, 10-[(2,3′-Dimethoxy-[1,1′-biphenyl]-4-yl)carbonyl]-N-(3-pyridinylmethyl)-10,11-dihydro-5H-pyrrolo[2,1-c][1,4]benzodiazepine-3-carboxamide] was 8%.
The same measure, in the same setting: the same measure for `O=C(NCc1cccnc1)c1ccc2n1Cc1ccccc1N(C(=O)c1ccc(-c3cccc4ccccc34)cc1Cl)C2` [Example 47, 10-[2-Chloro-4-(naphthalen-1-yl)benzoyl]-N-(3-pyridinylmethyl)-10,11-dihydro-5H-pyrrolo[2,1-c][1,4]benzodiazepine-3-carboxamide]: 6%; for `Cc1cc(C(=O)N2Cc3ccc(C(=O)NCc4cccnc4)n3Cc3ccccc32)ccc1-c1ccccc1C(F)(F)F` [Example 48, 10-{[2-Methyl-2′-trifluoromethyl-[1,1′-biphenyl]-4-yl]carbonyl}-N-(3-pyridinylmethyl)-10,11-dihydro-5H-pyrrolo[2,1-c][1,4]benzodiazepine-3-carboxamide]: 9%.
The same measure, in the same setting: the value for `COc1ccccc1-c1ccc(C(=O)N2Cc3ccc(C(=O)NCCc4ccccn4)n3Cc3ccccc32)cc1C` [Example 49, 10-[(2′-Methoxy-2-methyl-[1,1′-biphenyl]-4-yl)carbonyl]-N-[2-(2-pyridinyl)ethyl]-10,11-dihydro-5H-pyrrolo[2,1-c][1,4]benzodiazepine-3-carboxamide] was 26%.
`Cc1ccccc1-c1ccc(C(=O)N2Cc3ccc(C(=O)NCCc4ccccn4)n3Cc3ccccc32)cc1C` [Example 50, 10-[(2,2′-Dimethyl-[1,1′-biphenyl]-4-yl)carbonyl]-N-[2-(2-pyridinyl)ethyl]-10,11-dihydro-5H-pyrrolo[2,1-c][1,4]benzodiazepine-3-carboxamide] registered an inhibition at 0.1 µM of 17%.
`COc1cccc(-c2ccc(C(=O)N3Cc4ccc(C(=O)NCCc5ccccn5)n4Cc4ccccc43)cc2C)c1` [Example 51, 10-[(3′-Methoxy-2-methyl-[1,1′-biphenyl]-4-yl)carbonyl]-N-[2-(2-pyridinyl)ethyl]-10,11-dihydro-5H-pyrrolo[2,1-c][1,4]benzodiazepine-3-carboxamide] registered an inhibition at 0.1 µM of 16%.
In the case of `COc1ccccc1-c1ccc(C(=O)N2Cc3ccc(C(=O)NCCc4ccccn4)n3Cc3ccccc32)cc1` [Example 52, 10-[(2′-Methoxy-[1,1′-biphenyl]-4-yl)carbonyl]-N-[2-(2-pyridinyl)ethyl]-10,11-dihydro-5H-pyrrolo[2,1-c][1,4]benzodiazepine-3-carboxamide], the inhibition at 0.1 µM stood at 8%.
As for `Cc1ccccc1-c1ccc(C(=O)N2Cc3ccc(C(=O)NCCc4ccccn4)n3Cc3ccccc32)cc1` [Example 53, 10-[(2′-Methyl-[1,1′-biphenyl]-4-yl)carbonyl]-N-[2-(2-pyridinyl)ethyl]-10,11-dihydro-5H-pyrrolo[2,1-c][1,4]benzodiazepine-3-carboxamide], the inhibition at 0.1 µM amounted to 13%.
With `COc1cc(C(=O)N2Cc3ccc(C(=O)NCCc4ccccn4)n3Cc3ccccc32)ccc1-c1ccccc1C` [Example 54, 10-[(2-Methoxy-2′-methyl-[1,1′-biphenyl]-4-yl)carbonyl]-N-[2-(2-pyridinyl)ethyl]-10,11-dihydro-5H-pyrrolo[2,1-c][1,4]benzodiazepine-3-carboxamide], the inhibition at 0.1 µM came to 18%.
Consider `COc1cc(-c2ccccc2C)c(Cl)cc1C(=O)N1Cc2ccc(C(=O)NCCc3ccccn3)n2Cc2ccccc21` [Example 55, 10-[(6-Chloro-3-methoxy-2′-methyl-[1,1′-biphenyl]-4-yl)carbonyl]-N-[2-(2-pyridinyl)ethyl]-10,11-dihydro-5H-pyrrolo[2,1-c][1,4]benzodiazepine-3-carboxamide], for which testing at 0.1 µM gave an inhibition of 5%.
`COc1cccc(-c2cc(OC)c(C(=O)N3Cc4ccc(C(=O)NCCc5ccccn5)n4Cc4ccccc43)cc2Cl)c1` [Example 56, 10-[(6-Chloro-3,3′-dimethoxy-[1,1′-biphenyl]-4-yl)carbonyl]-N-[2-(2-pyridinyl)ethyl]-10,11-dihydro-5H-pyrrolo[2,1-c][1,4]benzodiazepine-3-carboxamide] yielded an inhibition at 0.1 µM of 11%.
Same read-out and setting: the same measure for `COc1cc(C(=O)N2Cc3ccc(C(=O)NCCc4ccccn4)n3Cc3ccccc32)ccc1-c1cccc2ccccc12` [Example 57, 10-[3-Methoxy-4-(naphthalen-1-yl)benzoyl]-N-[2-(2-pyridinyl)ethyl]-10,11-dihydro-5H-pyrrolo[2,1-c][1,4]benzodiazepine-3-carboxamide]: 33%; for `COc1ccccc1-c1ccc(C(=O)N2Cc3ccc(C(=O)NCCc4ccccn4)n3Cc3ccccc32)cc1OC` [Example 58, 10-[(2,2′-Dimethoxy-[1,1′-biphenyl]-4-yl)carbonyl]-N-[2-(2-pyridinyl)ethyl]-10,11-dihydro-5H-pyrrolo[2,1-c][1,4]benzodiazepine-3-carboxamide]: 22%; for `COc1cccc(-c2ccc(C(=O)N3Cc4ccc(C(=O)NCCc5ccccn5)n4Cc4ccccc43)cc2OC)c1` [Example 59, 10-[(2,3′-Dimethoxy-[1,1′-biphenyl]-4-yl)carbonyl]-N-[2-(2-pyridinyl)ethyl]-10,11-dihydro-5H-pyrrolo[2,1-c][1,4]benzodiazepine-3-carboxamide]: 4%.
The same measure, in the same setting: the value for `O=C(NCCc1ccccn1)c1ccc2n1Cc1ccccc1N(C(=O)c1ccc(-c3cccc4ccccc34)cc1Cl)C2` [Example 60, 10-[2-Chloro-4-(naphthalen-1-yl)benzoyl]-N-[2-(2-pyridinyl)ethyl]-10,11-dihydro-5H-pyrrolo[2,1-c][1,4]benzodiazepine-3-carboxamide] was 15%.
As for `Cc1cc(C(=O)N2Cc3ccc(C(=O)NCCc4ccccn4)n3Cc3ccccc32)ccc1-c1ccccc1C(F)(F)F` [Example 61, 10-{[2-Methyl-2′-trifluoromethyl=[1,1′-biphenyl]-4-yl]carbonyl}-N-[2-(2-pyridinyl)ethyl]-10,11-dihydro-5H-pyrrolo[2,1-c][1,4]benzodiazepine-3-carboxamide], the “V2 % inhibition @ 100 nM” value is recorded as 14%.
